Measurements: ChEMBL document CHEMBL3991601, “The target landscape of clinical kinase drugs” (Science, 2017)
Active and inactive are the calls of the source. Rule as the data show it, for most assays here: actives have a measured Kd and inactives only a lower limit.

Experiments:
[1] = target: T1, Uncharacterized protein FLJ45252 (Homo sapiens, UniProt Q6ZSR9); details: read-out: Kd apparent; k-562, colo 205, sk-n-be(2) and mv-4-11
T1 sequence (Q6ZSR9 whole entry): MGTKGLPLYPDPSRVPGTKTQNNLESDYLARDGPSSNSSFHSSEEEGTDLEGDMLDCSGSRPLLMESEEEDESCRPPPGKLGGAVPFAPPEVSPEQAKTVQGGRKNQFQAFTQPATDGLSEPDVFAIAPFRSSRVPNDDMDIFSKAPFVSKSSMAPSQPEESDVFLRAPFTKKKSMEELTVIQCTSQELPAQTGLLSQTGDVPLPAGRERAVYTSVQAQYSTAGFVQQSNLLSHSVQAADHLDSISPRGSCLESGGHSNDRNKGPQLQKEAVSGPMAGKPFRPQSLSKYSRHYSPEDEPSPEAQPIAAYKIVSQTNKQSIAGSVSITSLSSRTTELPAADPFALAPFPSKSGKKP

[2] = target: Tyrosine-protein kinase JAK1 (Homo sapiens, UniProt P23458)
Chain of Tyrosine-protein kinase JAK1 (P23458 whole entry, the tested form may be a part): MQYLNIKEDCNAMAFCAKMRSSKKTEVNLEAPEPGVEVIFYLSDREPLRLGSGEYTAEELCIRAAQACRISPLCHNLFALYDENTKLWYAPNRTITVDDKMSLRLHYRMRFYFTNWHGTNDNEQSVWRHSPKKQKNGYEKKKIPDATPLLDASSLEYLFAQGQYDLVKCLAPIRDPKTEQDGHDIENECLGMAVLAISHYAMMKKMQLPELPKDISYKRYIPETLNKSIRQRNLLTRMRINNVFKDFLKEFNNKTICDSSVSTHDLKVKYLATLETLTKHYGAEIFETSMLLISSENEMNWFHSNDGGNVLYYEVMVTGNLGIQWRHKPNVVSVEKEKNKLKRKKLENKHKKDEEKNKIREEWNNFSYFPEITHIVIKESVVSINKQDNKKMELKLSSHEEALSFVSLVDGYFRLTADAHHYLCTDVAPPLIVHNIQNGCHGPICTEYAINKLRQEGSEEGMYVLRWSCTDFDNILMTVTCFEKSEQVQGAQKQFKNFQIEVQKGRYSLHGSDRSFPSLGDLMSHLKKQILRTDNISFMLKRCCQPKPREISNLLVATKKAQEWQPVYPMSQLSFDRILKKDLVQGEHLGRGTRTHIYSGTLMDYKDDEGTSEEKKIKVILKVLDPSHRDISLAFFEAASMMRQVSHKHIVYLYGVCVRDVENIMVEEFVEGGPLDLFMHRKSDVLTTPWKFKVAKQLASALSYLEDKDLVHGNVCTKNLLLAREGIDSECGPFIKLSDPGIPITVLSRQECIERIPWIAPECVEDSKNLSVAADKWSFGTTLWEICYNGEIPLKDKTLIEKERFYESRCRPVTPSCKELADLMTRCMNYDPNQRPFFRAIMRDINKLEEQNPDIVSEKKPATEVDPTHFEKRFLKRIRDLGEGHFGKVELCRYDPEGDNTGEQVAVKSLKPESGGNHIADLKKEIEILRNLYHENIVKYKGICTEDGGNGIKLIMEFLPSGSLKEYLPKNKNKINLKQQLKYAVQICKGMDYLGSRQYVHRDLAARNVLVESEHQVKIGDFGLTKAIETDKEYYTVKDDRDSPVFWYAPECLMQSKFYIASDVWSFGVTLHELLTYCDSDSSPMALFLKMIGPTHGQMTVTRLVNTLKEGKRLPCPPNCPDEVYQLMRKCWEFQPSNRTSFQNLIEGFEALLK

[3] = target: T2, Discoidin domain-containing receptor 2 (Homo sapiens, UniProt Q16832)
T2 sequence (Q16832 whole entry): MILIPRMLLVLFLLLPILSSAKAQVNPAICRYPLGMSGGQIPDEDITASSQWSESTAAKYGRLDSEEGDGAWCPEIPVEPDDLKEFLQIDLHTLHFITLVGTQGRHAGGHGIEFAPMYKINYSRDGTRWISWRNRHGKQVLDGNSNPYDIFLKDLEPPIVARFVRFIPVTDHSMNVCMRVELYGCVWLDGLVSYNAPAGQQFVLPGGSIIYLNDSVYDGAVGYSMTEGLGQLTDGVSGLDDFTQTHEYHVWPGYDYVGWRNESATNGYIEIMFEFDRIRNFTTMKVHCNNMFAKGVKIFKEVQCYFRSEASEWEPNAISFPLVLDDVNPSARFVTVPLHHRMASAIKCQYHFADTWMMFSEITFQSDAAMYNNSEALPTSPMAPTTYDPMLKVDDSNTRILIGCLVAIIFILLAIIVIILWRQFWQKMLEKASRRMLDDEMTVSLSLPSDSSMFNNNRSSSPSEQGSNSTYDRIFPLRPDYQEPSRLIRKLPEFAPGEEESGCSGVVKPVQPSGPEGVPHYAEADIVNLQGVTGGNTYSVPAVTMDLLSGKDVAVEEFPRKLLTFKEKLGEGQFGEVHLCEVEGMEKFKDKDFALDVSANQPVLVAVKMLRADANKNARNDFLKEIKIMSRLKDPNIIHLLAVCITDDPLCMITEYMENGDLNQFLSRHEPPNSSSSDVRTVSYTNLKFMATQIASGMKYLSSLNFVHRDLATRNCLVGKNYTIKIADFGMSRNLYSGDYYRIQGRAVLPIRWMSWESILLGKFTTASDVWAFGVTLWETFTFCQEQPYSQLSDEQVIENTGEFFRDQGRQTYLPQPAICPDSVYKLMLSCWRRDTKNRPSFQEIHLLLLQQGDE

LIM domain kinase 2 = LIM domain kinase 2 (Homo sapiens, UniProt P53671)
Chain of LIM domain kinase 2 (P53671 whole entry, the tested form may be a part): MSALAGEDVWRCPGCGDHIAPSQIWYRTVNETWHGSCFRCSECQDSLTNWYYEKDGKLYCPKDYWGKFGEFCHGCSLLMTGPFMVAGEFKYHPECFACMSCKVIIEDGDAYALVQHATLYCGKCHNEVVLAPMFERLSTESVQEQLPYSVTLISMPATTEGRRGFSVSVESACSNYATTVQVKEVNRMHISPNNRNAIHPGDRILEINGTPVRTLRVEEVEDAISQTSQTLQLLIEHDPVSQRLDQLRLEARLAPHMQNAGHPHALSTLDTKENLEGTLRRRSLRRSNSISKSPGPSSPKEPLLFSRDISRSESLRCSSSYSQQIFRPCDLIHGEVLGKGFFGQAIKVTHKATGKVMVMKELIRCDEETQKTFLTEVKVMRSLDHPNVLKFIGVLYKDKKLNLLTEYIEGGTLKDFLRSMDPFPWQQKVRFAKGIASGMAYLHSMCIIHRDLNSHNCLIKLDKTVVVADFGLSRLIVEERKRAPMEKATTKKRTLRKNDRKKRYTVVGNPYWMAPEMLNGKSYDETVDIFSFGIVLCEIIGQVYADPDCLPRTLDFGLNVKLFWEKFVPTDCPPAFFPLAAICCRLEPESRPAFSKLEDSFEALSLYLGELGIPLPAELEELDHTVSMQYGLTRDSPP

[4] = target: Proto-oncogene tyrosine-protein kinase Src (Homo sapiens, UniProt P12931)
Chain of Proto-oncogene tyrosine-protein kinase Src (P12931 2-536 limits assumed): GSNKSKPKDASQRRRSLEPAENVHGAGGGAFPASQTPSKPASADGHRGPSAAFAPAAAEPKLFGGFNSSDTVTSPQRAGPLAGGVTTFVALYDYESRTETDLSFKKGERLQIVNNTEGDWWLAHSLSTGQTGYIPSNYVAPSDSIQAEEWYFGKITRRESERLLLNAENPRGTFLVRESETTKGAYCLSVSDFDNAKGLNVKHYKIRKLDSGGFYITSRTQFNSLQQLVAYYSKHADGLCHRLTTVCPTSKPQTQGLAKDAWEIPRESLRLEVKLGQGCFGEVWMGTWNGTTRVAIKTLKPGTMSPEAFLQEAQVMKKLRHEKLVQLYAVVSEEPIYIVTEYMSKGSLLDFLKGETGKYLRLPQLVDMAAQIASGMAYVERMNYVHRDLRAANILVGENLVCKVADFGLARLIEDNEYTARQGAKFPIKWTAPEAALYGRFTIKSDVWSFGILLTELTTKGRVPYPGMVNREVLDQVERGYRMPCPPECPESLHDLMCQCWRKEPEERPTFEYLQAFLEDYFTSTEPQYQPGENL

[5] = target: Epithelial discoidin domain-containing receptor 1 (Homo sapiens, UniProt Q08345)
Chain of Epithelial discoidin domain-containing receptor 1 (Q08345 whole entry, the tested form may be a part): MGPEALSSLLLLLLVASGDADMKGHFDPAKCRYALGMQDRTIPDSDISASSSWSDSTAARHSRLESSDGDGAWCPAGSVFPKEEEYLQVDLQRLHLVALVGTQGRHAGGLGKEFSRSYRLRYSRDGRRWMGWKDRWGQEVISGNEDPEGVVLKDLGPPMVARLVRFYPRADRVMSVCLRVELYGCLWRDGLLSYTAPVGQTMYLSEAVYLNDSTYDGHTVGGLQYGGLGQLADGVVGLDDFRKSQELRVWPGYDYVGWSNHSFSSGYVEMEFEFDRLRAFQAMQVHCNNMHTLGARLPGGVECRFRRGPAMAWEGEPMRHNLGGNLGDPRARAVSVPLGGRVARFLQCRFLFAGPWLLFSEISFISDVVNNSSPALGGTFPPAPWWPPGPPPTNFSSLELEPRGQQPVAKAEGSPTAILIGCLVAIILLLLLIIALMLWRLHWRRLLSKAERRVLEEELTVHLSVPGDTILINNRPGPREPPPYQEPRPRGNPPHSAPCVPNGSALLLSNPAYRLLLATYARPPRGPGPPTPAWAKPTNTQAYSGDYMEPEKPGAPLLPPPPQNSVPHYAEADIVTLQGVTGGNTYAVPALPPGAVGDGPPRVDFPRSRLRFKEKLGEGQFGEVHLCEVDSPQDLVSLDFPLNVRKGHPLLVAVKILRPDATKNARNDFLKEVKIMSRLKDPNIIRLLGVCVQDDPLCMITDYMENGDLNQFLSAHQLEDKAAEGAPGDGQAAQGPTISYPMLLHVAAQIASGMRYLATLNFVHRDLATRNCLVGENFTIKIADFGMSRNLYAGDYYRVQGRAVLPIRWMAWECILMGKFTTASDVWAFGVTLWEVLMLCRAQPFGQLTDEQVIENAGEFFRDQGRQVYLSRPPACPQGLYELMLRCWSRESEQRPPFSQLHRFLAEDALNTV

Activin receptor type-1 = target: T3, Activin receptor type-1 (Homo sapiens, UniProt Q04771)
T3 sequence (Q04771 whole entry): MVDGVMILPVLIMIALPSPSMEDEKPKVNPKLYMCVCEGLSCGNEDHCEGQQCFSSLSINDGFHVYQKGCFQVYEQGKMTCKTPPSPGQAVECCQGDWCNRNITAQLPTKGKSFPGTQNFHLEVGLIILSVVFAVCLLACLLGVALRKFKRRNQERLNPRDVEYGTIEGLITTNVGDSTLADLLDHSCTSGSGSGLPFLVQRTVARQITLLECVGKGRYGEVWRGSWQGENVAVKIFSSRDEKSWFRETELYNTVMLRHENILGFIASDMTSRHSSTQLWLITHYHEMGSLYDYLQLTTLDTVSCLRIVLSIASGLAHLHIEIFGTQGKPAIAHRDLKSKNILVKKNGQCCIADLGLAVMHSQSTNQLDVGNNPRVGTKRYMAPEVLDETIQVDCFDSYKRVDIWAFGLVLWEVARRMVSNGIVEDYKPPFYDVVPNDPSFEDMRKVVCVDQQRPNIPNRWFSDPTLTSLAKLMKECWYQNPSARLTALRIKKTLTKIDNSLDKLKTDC

[6] = target: T4, Membrane-associated tyrosine- and threonine-specific cdc2-inhibitory kinase (Homo sapiens, UniProt Q99640)
T4 sequence (Q99640 whole entry): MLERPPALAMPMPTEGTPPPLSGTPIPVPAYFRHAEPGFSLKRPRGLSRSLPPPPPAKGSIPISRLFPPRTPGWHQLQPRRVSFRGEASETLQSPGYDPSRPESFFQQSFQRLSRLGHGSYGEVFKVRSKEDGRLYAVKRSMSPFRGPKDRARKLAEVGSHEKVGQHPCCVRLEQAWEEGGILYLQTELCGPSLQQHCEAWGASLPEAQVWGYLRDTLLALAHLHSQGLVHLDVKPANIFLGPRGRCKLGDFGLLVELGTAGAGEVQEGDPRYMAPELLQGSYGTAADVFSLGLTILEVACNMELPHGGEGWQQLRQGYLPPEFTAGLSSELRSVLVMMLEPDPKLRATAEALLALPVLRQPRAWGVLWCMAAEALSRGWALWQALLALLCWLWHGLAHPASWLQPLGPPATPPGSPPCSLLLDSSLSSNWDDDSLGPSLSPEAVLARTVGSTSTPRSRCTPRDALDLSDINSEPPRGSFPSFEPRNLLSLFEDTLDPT

[7] = target: T5, Serine/threonine-protein kinase ULK3 (Homo sapiens, UniProt Q6PHR2)
T5 sequence (Q6PHR2 whole entry): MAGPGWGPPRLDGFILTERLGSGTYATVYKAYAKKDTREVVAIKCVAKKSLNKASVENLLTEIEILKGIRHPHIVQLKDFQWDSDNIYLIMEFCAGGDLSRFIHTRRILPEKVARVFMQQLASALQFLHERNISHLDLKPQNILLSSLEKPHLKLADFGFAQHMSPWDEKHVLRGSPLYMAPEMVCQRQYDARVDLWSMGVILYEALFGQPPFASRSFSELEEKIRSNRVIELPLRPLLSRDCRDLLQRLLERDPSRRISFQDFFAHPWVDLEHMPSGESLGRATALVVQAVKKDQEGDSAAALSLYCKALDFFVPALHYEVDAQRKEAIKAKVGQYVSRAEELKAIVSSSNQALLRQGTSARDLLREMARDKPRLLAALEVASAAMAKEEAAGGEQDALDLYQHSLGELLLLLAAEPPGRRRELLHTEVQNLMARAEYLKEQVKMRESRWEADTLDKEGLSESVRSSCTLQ
Also: in the data inactive means no Kd found up to 30 µM.

| Kd [1] | Kd [2] | Kd [3] | Kd (LIM domain kinase 2) | Kd [4] | Kd [5] | Kd (Activin receptor type-1) | Kd [6] | Kd [7] | Structure (SMILES) |
| --- | --- | --- | --- | --- | --- | --- | --- | --- | --- |
| > 30 µM (inactive) | > 30 µM (inactive) | > 30 µM (inactive) | > 30 µM (inactive) | > 30 µM (inactive) | > 30 µM (inactive) | > 30 µM (inactive) | > 30 µM (inactive) | > 30 µM (inactive) | Cn1cc(-c2ccc(F)c(C(F)(F)F)c2)nc1C1CCN(c2ncnc3[nH]ncc23)CC1 [LY-2584702] |
| > 30 µM (inactive) | > 30 µM (inactive) | > 30 µM (inactive) | > 30 µM (inactive) | > 30 µM (inactive) | > 30 µM (inactive) | > 30 µM (inactive) | > 30 µM (inactive) | > 30 µM (inactive) | CNC(=O)c1ccc(C)c(-n2c(C)cc(OCc3ccc(F)cc3F)c(Br)c2=O)c1 [PH-797804] |
| > 30 µM (inactive) | > 30 µM (inactive) | > 30 µM (inactive) | > 30 µM (inactive) | > 30 µM (inactive) | > 30 µM (inactive) | > 30 µM (inactive) | > 30 µM (inactive) | > 30 µM (inactive) | COc1ccc(-c2ccc3c(N4CCOC[C@@H]4C)nc(N4CCOC[C@@H]4C)nc3n2)cc1CO [AZD-8055] |
| > 30 µM (inactive) | > 30 µM (inactive) | > 30 µM (inactive) | > 30 µM (inactive) | > 30 µM (inactive) | 1.22 µM (active) | 0.121 µM (active) | > 30 µM (inactive) | > 30 µM (inactive) | O=C(O)[C@]1(Cc2cccc(Nc3nccs3)n2)CC[C@@H](Oc2cccc(Cl)c2F)CC1 [MK-5108] |

Further lines, the molecule ahead of its results:

| Structure (SMILES) | Kd [1] | Kd [2] | Kd [3] | Kd (LIM domain kinase 2) | Kd [4] | Kd [5] | Kd (Activin receptor type-1) | Kd [6] | Kd [7] |
| --- | --- | --- | --- | --- | --- | --- | --- | --- | --- |
| CO[C@H]1C[C@@H]2CC[C@@H](C)[C@@](O)(O2)C(=O)C(=O)N2CCCC[C@H]2C(=O)O[C@H]([C@H](C)C[C@@H]2CC[C@@H](OCCO)[C@H](OC)C2)CC(=O)[C@H](C)/C=C(\C)[C@@H](O)[C@@H](OC)C(=O)[C@H](C)C[C@H](C)/C=C/C=C/C=C/1C [EVEROLIMUS] | > 30 µM (inactive) | > 30 µM (inactive) | > 30 µM (inactive) | > 30 µM (inactive) | > 30 µM (inactive) | > 30 µM (inactive) | > 30 µM (inactive) | > 30 µM (inactive) | > 30 µM (inactive) |
| CC(C)Nc1cc(-c2c[nH]c(C(=O)N[C@H](CO)c3cccc(Cl)c3)c2)c(Cl)cn1 [ULIXERTINIB] | > 30 µM (inactive) | > 30 µM (inactive) | > 30 µM (inactive) | > 30 µM (inactive) | > 30 µM (inactive) | > 30 µM (inactive) | > 30 µM (inactive) | > 30 µM (inactive) | > 30 µM (inactive) |
| COC(=O)[C@@]1(O)C[C@H]2O[C@]1(C)n1c3ccccc3c3c4c(c5c6ccccc6n2c5c31)C(=O)NC4 [K-252A] | 0.021 µM (active) | > 30 µM (inactive) | > 30 µM (inactive) | > 30 µM (inactive) | > 30 µM (inactive) | > 30 µM (inactive) | > 30 µM (inactive) | > 30 µM (inactive) | 0.107 µM (active) |
| Cc1ccc(NC(=O)c2ccc(CN3CC[C@H](N(C)C)C3)c(C(F)(F)F)c2)cc1Nc1nccc(-c2cncnc2)n1 [BAFETINIB] | > 30 µM (inactive) | > 30 µM (inactive) | 0.048 µM (active) | > 30 µM (inactive) | > 30 µM (inactive) | 0.014 µM (active) | > 30 µM (inactive) | > 30 µM (inactive) | > 30 µM (inactive) |
| Cc1ccc(-n2nc(C(C)(C)C)cc2NC(=O)NCc2cc(F)ccc2Oc2ccc3c(cnn3CCO)c2)cc1 [PEXMETINIB] | > 30 µM (inactive) | > 30 µM (inactive) | 1.14 µM (active) | > 30 µM (inactive) | > 30 µM (inactive) | 0.363 µM (active) | > 30 µM (inactive) | > 30 µM (inactive) | > 30 µM (inactive) |
| CNC(=O)c1ccc(-c2cnc3ncc(Cc4ccc5ncccc5c4)n3n2)cc1F [CAPMATINIB] | > 30 µM (inactive) | > 30 µM (inactive) | > 30 µM (inactive) | > 30 µM (inactive) | > 30 µM (inactive) | > 30 µM (inactive) | > 30 µM (inactive) | > 30 µM (inactive) | > 30 µM (inactive) |
